{"source": "patent US20110081675A1", "about": "“Metabolic Biomarkers Of Drug-Induced Cardiotoxicity” (WISCONSIN ALUMNI RESEARCH FOUNDATION, priority 2009, published 2011)", "key": {"human cardiomyocytes": {"test_system": "human cardiomyocytes", "description": "The percentage of cell death, inherently and after drug treatment, was calculated by Trypan Blue staining (FIG. 2).\nThe doses for each compound were based upon published standards, equivalent to therapeutic circulating levels whenever possible (see Table 1)."}, "[1]": {"test_system": "human cardiomyocytes (Celprogen 36044-15at)", "assay": "LC-ESI-TOF-MS metabolomics of extracellular media of drug-treated human cardiomyocytes (Tables 2A-2C)", "type": "cell-based", "conditions": "26uM Doxorubicin", "description": "Data for statistical analysis were extracted from chromatograms using the Agilent Mass Hunter software (Product No. G3297AA, Agilent Technologies, Inc., Santa Clara, Calif.); it will be understood that alternative statistical analysis methods can be used. Masses were binned together if they were within 10 ppm and eluted within a 2 minutes retention time window. A binned mass was considered to be the same molecule across different LC-ESI-TOF-MS analyses (referred to herein as an “exact mass,” which will be understood to be ±10 ppm). Binning of the data is required for statistical analysis and comparison of masses across the entire experiment. If multiple peaks with the same mass at the same retention time within a single sample were detected by Mass Hunter, they were averaged to assist data analysis. Masses lacking a natural isotopic distribution or with an absolute height of less than 1000 were removed from the data prior to analysis. It would be understood that the results from this assay provide relative values that are assessed according to annotated values within 10 ppm to provide an identity for the molecular weight detected. Thus, a mass shift within 10 ppm is considered consistent with determining the identity of a specific cellular metabolite previously annotated due to differences in ionization source and instrumentation, e.g. between different experiments or using different instruments.\nAs used herein, a mass was considered to be the same across LC/ESI-TOF-MS runs using a simple algorithm that first sorts the data by mass and retention time. […] If a series of measurements fit this definition it was considered to be from the same compound. If either the mass or the retention time varied by more than the limits listed above it was considered to be a different compound and given a new unique designation.\nThe data from the most reproducible mass features was log base 2 transformed and median centered prior to statistical analysis. […] To test the null hypothesis a one way permutation based t-test assuming a normal approximation of the conditional distribution was used and implement using the Conditional Inference Procedures in a Permutation Test Framework (Coin) library, a contributed package of programming code. Statistics tests were performed without replacement of missing values decrease the degrees of freedom rather than imputing missing values. […] False discovery rates (FDR) were controlled using the Q value estimator (Storey et al., 2003, Proc Natl Acad. Sci., 100:9440-5) and implemented using the qvalue library in R (Dabney et al., 2003, qvalue: Q-value estimation for false discovery rate control. R package version 1.10.0., www.CRAN.R-project.org).\nThe extracellular media from treated and untreated cells was processed as described in Cezar et al., (2007, Stem Cells Development 16: 869-882, this publication is incorporated by reference), for extraction of low molecular weight molecules (<3 kD) for metabolomics analysis. Extracellular low molecular weight molecule preparations were separated by liquid chromatography followed by electrospray ionization time of flight (LC-ESI-TOF-MS) mass spectrometry for ionization and detection of the full spectra of low molecular weight molecules present in each sample. More specifically, the samples were separated using the ESI_Luna_HILIC—95_t—06OACN—16 min method (HILIC chromatography). Statistical differences were inferred by subsequent bioinformatics and in silico mapping of deisotoped ESI-TOF-MS mass features as described below (also provided in Cezar et al. (2007, id.)).\nBriefly, ionization (100 m/z-1500 m/z) was acquired on an Agilent 6520 Accurate-Mass Q-TOF in extended dynamic range and positive mode. Mass features were generated using two independent methods. First MassHunter Qualitative Analysis was used to generate mass features using the Molecular Feature Extraction algorithm (MFE)."}}}
{"smiles": "COc1cccc2c1C(=O)c1c(O)c3c(c(O)c1C2=O)C[C@@](O)(C(=O)CO)C[C@@H]3O[C@H]1C[C@H](N)[C@H](O)[C@H](C)O1", "note": "[Doxorubicin]", "values": [{"measurement": "cell death (in words)", "setting": "human cardiomyocytes", "result": "significantly higher cell death"}, {"measurement": "doxfold", "setting": "[1]; feature cpdID 36, neutral mass 101.1204, RT 0.720145, Triethylamine or Hexylamine", "result": "−1.186", "unit": "fold"}, {"measurement": "doxfold", "setting": "[1]; feature cpdID 8902, neutral mass 276.1256, RT 8.733378, no hit", "result": 2.438, "unit": "fold"}, {"measurement": "doxfold", "setting": "[1]; feature cpdID 11232, neutral mass 311.1029, RT 7.400847, p-Glucosyloxymandelonitrile or (S)-4-Hydroxymandelonitrile beta-D-glucoside", "result": 5.193, "unit": "fold"}, {"measurement": "doxfold", "setting": "[1]; feature cpdID 14190, neutral mass 356.253, RT 1.103957, HMDB04239, 13,14-dihydro PGE1 or Prostaglandin F1alpha", "result": 12.32, "unit": "fold"}, {"measurement": "doxfold", "setting": "[1]; feature cpdID 16504, neutral mass 393.0913, RT 7.25538, no hit", "result": 1.09, "unit": "fold"}, {"measurement": "doxfold", "setting": "[1]; feature cpdID 16939, neutral mass 400.2796, RT 1.108613, 7-Ketocholesterol", "result": 11.7, "unit": "fold"}, {"measurement": "doxfold", "setting": "[1]; feature cpdID 17096, neutral mass 403.1776, RT 6.2306, no hit", "result": "−2.02", "unit": "fold"}, {"measurement": "doxfold", "setting": "[1]; feature cpdID 19500, neutral mass 444.3034, RT 1.106333, […]-Dihydroxyvitamin D3-26,23-lactone", "result": 16.24, "unit": "fold"}, {"measurement": "doxfold", "setting": "[1]; feature cpdID 19704, neutral mass 448.1344, RT 7.184483, no hit", "result": 2.122, "unit": "fold"}, {"measurement": "doxfold", "setting": "[1]; feature cpdID 21926, neutral mass 488.3323, RT 1.106573, no hit", "result": 7.799, "unit": "fold"}, {"measurement": "doxfold", "setting": "[1]; feature cpdID 23129, neutral mass 515.181, RT 10.44297, no hit", "result": 1.178, "unit": "fold"}, {"measurement": "doxfold", "setting": "[1]; feature cpdID 23163, neutral mass 516.1241, RT 7.217222, Formononetin 7-O-glucoside-6″-O-malonate, Isochlorogenic acid b or 13-Dicaffeoylquinic acid", "result": 2.198, "unit": "fold"}, {"measurement": "doxfold", "setting": "[1]; feature cpdID 24142, neutral mass 538.2779, RT 0.783395, no hit", "result": 1.559, "unit": "fold"}, {"measurement": "doxfold", "setting": "[1]; feature cpdID 25445, neutral mass 572.1055, RT 7.089848, no hit", "result": 1.199, "unit": "fold"}, {"measurement": "doxfold", "setting": "[1]; feature cpdID 25561, neutral mass 575.2051, RT 7.271724, no hit", "result": 2.11, "unit": "fold"}, {"measurement": "doxfold", "setting": "[1]; feature cpdID 25601, neutral mass 576.3861, RT 1.10751, 3-Hexaprenyl-4-hydroxy-5-methoxybenzoic acid", "result": 4.776, "unit": "fold"}, {"measurement": "doxfold", "setting": "[1]; feature cpdID 27363, neutral mass 620.4117, RT 1.108317, no hit", "result": 2.836, "unit": "fold"}, {"measurement": "doxfold", "setting": "[1]; feature cpdID 28720, neutral mass 661.1924, RT 6.495524, no hit", "result": 1.096, "unit": "fold"}, {"measurement": "doxfold", "setting": "[1]; feature cpdID 29101, neutral mass 672.1828, RT 6.528464, no hit", "result": 2.172, "unit": "fold"}, {"measurement": "doxfold", "setting": "[1]; feature cpdID 29124, neutral mass 672.6836, RT 6.559082, no hit", "result": 1.282, "unit": "fold"}, {"measurement": "doxfold", "setting": "[1]; feature cpdID 29227, neutral mass 676.1781, RT 1.298314, no hit", "result": "−6.816", "unit": "fold"}, {"measurement": "doxfold", "setting": "[1]; feature cpdID 31637, neutral mass 744.1091, RT 1.26415, no hit", "result": "−1.423", "unit": "fold"}, {"measurement": "doxfold", "setting": "[1]; feature cpdID 33162, neutral mass 791.2316, RT 6.496594, no hit", "result": 1.817, "unit": "fold"}, {"measurement": "doxfold", "setting": "[1]; feature cpdID 37905, neutral mass 932.2608, RT 6.542554, no hit", "result": 1.663, "unit": "fold"}, {"measurement": "doxfold", "setting": "[1]; feature cpdID 37922, neutral mass 932.7613, RT 6.562271, no hit", "result": 1.324, "unit": "fold"}, {"measurement": "doxfold", "setting": "[1]; feature cpdID 37938, neutral mass 933.3726, RT 8.330596, no hit", "result": 1.117, "unit": "fold"}, {"measurement": "doxfold", "setting": "[1]; feature cpdID 40510, neutral mass 1040.322, RT 6.499979, no hit", "result": 1.351, "unit": "fold"}, {"measurement": "doxfold", "setting": "[1]; feature cpdID 42137, neutral mass 1122.172, RT 1.256606, no hit", "result": "−3.594", "unit": "fold"}, {"measurement": "doxfold", "setting": "[1]; feature cpdID 45209, neutral mass 1300.402, RT 6.501484, no hit", "result": 1.838, "unit": "fold"}, {"measurement": "doxfold", "setting": "[1]; feature cpdID 45486, neutral mass 1322.385, RT 6.518707, no hit", "result": 1.667, "unit": "fold"}]}
